In paper PMC10363032 (Cancer Chemotherapy and Pharmacology, 2023):

Legend:
clinical = conditions: human, in vivo, 225 mg
Procedure: PK parameters were derived using non-compartmental methods with Phoenix® WinNonlin® version 6.4 (Certara, LP, Princeton, NJ, USA). All descriptive and inferential statistical computations were performed using SAS® version 9.1 (SAS Institute, Cary, NC, USA).

Wee1 = tested on: Wee1; design: method as in PMID 25964244, PMID 19887545; conditions: read-out: half-maximal inhibitory concentration (IC50); cited from earlier work
[1] = human, in vivo
Procedure: (§1) Safety was appraised throughout the study by the assessment of clinical and laboratory adverse events (AEs; graded by Common Terminology Criteria for Adverse Events [CTCAE], version 4.03), physical examination, and evaluation of vital signs and laboratory data (clinical chemistry and hematology).
(§2) Patients were evaluated according to the treatment received.

CYP3A = conditions: read-out: IC50, reversible inhibition of CYP3A; ref AstraZeneca, data on file, 2020; 16; cited from earlier work
[2] = safety and tolerability, adverse events (CTCAE version 4.03) in patients
Procedure: as §1, §2

[3] = Adavosertib n = 30, Adavosertib + cocktail n = 26
[4] = after receiving adavosertib, all 30 patients
[5] = probe cocktail plus adavosertib 26 patients, adavosertib alone on days 1 and 2, 30
[6] = probe cocktail plus adavosertib n = 26, adavosertib alone n = 30

## C=CCn1c(=O)c2cnc(Nc3ccc(N4CCN(C)CC4)cc3)nc2n1-c1cccc(C(C)(C)O)n1 [adavosertib]
clinical
  CLss/F, arithmetic mean (SD): 38.0 (12.11) L/h
  CLss/F, median (minimum, maximum): 36.9 (24.3, 63.5) L/h
  Tmax: 3 h
  intra-patient variability for AUC0–12 and Cmax: < 10%
clinical; AUC0–12, arithmetic mean (SD)
  AUC(0-t): 12.7 µM·h
clinical; AUC0–12, geometric mean
  AUC(0-t): 12.2 µM·h
clinical; AUC0–12, median (minimum, maximum)
  AUC(0-t): 12 µM·h
clinical; arithmetic mean (SD)
  Cmax: 1.49 µM
clinical; geometric mean
  Cmax: 1.44 µM
clinical; median (minimum, maximum)
  Cmax: 1.42 µM
Wee1
  IC50: 0.0052 µM
[1]
  AEs with an outcome of death: No AEs with an outcome of death were observed
CYP3A
  IC50: 14 µM
[2]; [3]
  Acute kidney injury (causally related), any grade: 1 (3.3) Number of patients (%)
  Acute kidney injury (causally related), grade ≥3: 1 ( 3. 3) Number of patients (%)
  Anemia (causally related), any grade: 0 Number of patients (%)
  Anemia (causally related), grade ≥3: 0 Number of patients (%)
  Any AE (causally related), any grade: 11 (36.7) Number of patients (%)
  Any AE (causally related), grade ≥3: 4 (13.3) Number of patients (%)
  Blood and lymphatic system disorders (causally related), any grade: 2 ( 6. 7) Number of patients (%)
  Blood and lymphatic system disorders (causally related), grade ≥3: 1 (3.3) Number of patients (%)
  Blood creatinine increased (causally related), any grade: 0 Number of patients (%)
  Blood creatinine increased (causally related), grade ≥3: 0 Number of patients (%)
  Decreased appetite (causally related), any grade: 0 Number of patients (%)
  Decreased appetite (causally related), grade ≥3: 0 Number of patients (%)
  Dehydration (causally related), any grade: 1 (3.3) Number of patients (%)
  Dehydration (causally related), grade ≥3: 1 (3.3) Number of patients (%)
  Diarrhea (causally related), any grade: 10 (33.3) Number of patients (%)
  Diarrhea (causally related), grade ≥3: 3 (10.0) Number of patients (%)
  Dizziness (causally related), any grade: 0 Number of patients (%)
  Dizziness (causally related), grade ≥3: 0 Number of patients (%)
  Fatigue (causally related), any grade: 0 Number of patients (%)
  Fatigue (causally related), grade ≥3: 0 Number of patients (%)
  Flushing (causally related), any grade: 0 Number of patients (%)
  Flushing (causally related), grade ≥3: 0 Number of patients (%)
  Gastrointestinal disorders (causally related), any grade: 11 (36.7) Number of patients (%)
  Gastrointestinal disorders (causally related), grade ≥3: 3 (10.0) Number of patients (%)
  General disorders and administration site conditions (causally related), any grade: 0 Number of patients (%)
  General disorders and administration site conditions (causally related), grade ≥3: 0 Number of patients (%)
  Hypokalemia (causally related), any grade: 1 (3.3) Number of patients (%)
  Hypokalemia (causally related), grade ≥3: 1 (3.3) Number of patients (%)
  Investigations (causally related), any grade: 2 (6.7) Number of patients (%)
  Investigations (causally related), grade ≥3: 0 Number of patients (%)
  Metabolism and nutrition disorders (causally related), any grade: 2 (6.7) Number of patients (%)
  Metabolism and nutrition disorders (causally related), grade ≥3: 2 ( 6. 7) Number of patients (%)
  Muscle spasms (causally related), any grade: 0 Number of patients (%)
  Muscle spasms (causally related), grade ≥3: 0 Number of patients (%)
  Musculoskeletal and connective tissue disorders (causally related), any grade: 0 Number of patients (%)
  Musculoskeletal and connective tissue disorders (causally related), grade ≥3: 0 Number of patients (%)
  Nasal ulcer (causally related), any grade: 0 Number of patients (%)
  Nasal ulcer (causally related), grade ≥3: 0 Number of patients (%)
  Nausea (causally related), any grade: 3 (10.0) Number of patients (%)
  Nausea (causally related), grade ≥3: 1 (3.3) Number of patients (%)
  Nervous system disorders (causally related), any grade: 0 Number of patients (%)
  Nervous system disorders (causally related), grade ≥3: 0 Number of patients (%)
  Neutropenia (causally related), any grade: 1 (3.3) Number of patients (%)
  Neutropenia (causally related), grade ≥3: 1 (3.3) Number of patients (%)
  Pancreatitis (causally related), any grade: 1 (3.3) Number of patients (%)
  Pancreatitis (causally related), grade ≥3: 1 (3.3) Number of patients (%)
  Renal and urinary disorders (causally related), any grade: 1 (3.3) Number of patients (%)
  Renal and urinary disorders (causally related), grade ≥3: 1 (3.3) Number of patients (%)
  Respiratory, thoracic and mediastinal disorders (causally related), any grade: 0 Number of patients (%)
  Respiratory, thoracic and mediastinal disorders (causally related), grade ≥3: 0 Number of patients (%)
  Stomatitis (causally related), any grade: 0 Number of patients (%)
  Stomatitis (causally related), grade ≥3: 0 Number of patients (%)
  Thrombocytopenia (causally related), any grade: 1 (3.3) Number of patients (%)
  Thrombocytopenia (causally related), grade ≥3: 0 Number of patients (%)
  Vascular disorders (causally related), any grade: 0 Number of patients (%)
  Vascular disorders (causally related), grade ≥3: 0 Number of patients (%)
  Vomiting (causally related), any grade: 6 (20.0) Number of patients (%)
  Vomiting (causally related), grade ≥3: 1 (3.3) Number of patients (%)
  Weight decreased (causally related), any grade: 2 (6.7) Number of patients (%)
  Weight decreased (causally related), grade ≥3: 0 Number of patients (%)
[2]; Total (n = 30)
  Acute kidney injury (causally related), any grade: 1 (3.3) Number of patients (%)
  Acute kidney injury (causally related), grade ≥3: 1 (3.3) Number of patients (%)
  Anemia (causally related), any grade: 1 (3.3) Number of patients (%)
  Anemia (causally related), grade ≥3: 1 (3.3) Number of patients (%)
  Any AE (causally related), any grade: 19 (63.3) Number of patients (%)
  Any AE (causally related), grade ≥3: 6 (20.0) Number of patients (%)
  Blood and lymphatic system disorders (causally related), any grade: 4 (13.3) Number of patients (%)
  Blood and lymphatic system disorders (causally related), grade ≥3: 3 (10.0) Number of patients (%)
  Blood creatinine increased (causally related), any grade: 1 (3.3) Number of patients (%)
  Blood creatinine increased (causally related), grade ≥3: 0 Number of patients (%)
  Decreased appetite (causally related), any grade: 1 (3.3) Number of patients (%)
  Decreased appetite (causally related), grade ≥3: 0 Number of patients (%)
  Dehydration (causally related), any grade: 2 (6.7) Number of patients (%)
  Dehydration (causally related), grade ≥3: 1 (3.3) Number of patients (%)
  Diarrhea (causally related), any grade: 14 (46.7) Number of patients (%)
  Diarrhea (causally related), grade ≥3: 3 (10.0) Number of patients (%)
  Dizziness (causally related), any grade: 2 (6.7) Number of patients (%)
  Dizziness (causally related), grade ≥3: 0 Number of patients (%)
  Fatigue (causally related), any grade: 1 (3.3) Number of patients (%)
  Fatigue (causally related), grade ≥3: 0 Number of patients (%)
  Flushing (causally related), any grade: 1 (3.3) Number of patients (%)
  Flushing (causally related), grade ≥3: 0 Number of patients (%)
  Gastrointestinal disorders (causally related), any grade: 17 (56.7) Number of patients (%)
  Gastrointestinal disorders (causally related), grade ≥3: 3 (10.0) Number of patients (%)
  General disorders and administration site conditions (causally related), any grade: 1 (3.3) Number of patients (%)
  General disorders and administration site conditions (causally related), grade ≥3: 0 Number of patients (%)
  Hypokalemia (causally related), any grade: 1 (3.3) Number of patients (%)
  Hypokalemia (causally related), grade ≥3: 1 (3.3) Number of patients (%)
  Investigations (causally related), any grade: 4 (13.3) Number of patients (%)
  Investigations (causally related), grade ≥3: 0 Number of patients (%)
  Metabolism and nutrition disorders (causally related), any grade: 3 (10.0) Number of patients (%)
  Metabolism and nutrition disorders (causally related), grade ≥3: 2 (6.7) Number of patients (%)
  Muscle spasms (causally related), any grade: 1 (3.3) Number of patients (%)
  Muscle spasms (causally related), grade ≥3: 0 Number of patients (%)
  Musculoskeletal and connective tissue disorders (causally related), any grade: 1 (3.3) Number of patients (%)
  Musculoskeletal and connective tissue disorders (causally related), grade ≥3: 0 Number of patients (%)
  Nasal ulcer (causally related), any grade: 1 (3.3) Number of patients (%)
  Nasal ulcer (causally related), grade ≥3: 0 Number of patients (%)
  Nausea (causally related), any grade: 6 (20.0) Number of patients (%)
  Nausea (causally related), grade ≥3: 1 (3.3) Number of patients (%)
  Nervous system disorders (causally related), any grade: 2 (6.7) Number of patients (%)
  Nervous system disorders (causally related), grade ≥3: 0 Number of patients (%)
  Neutropenia (causally related), any grade: 2 (6.7) Number of patients (%)
  Neutropenia (causally related), grade ≥3: 2 (6.7) Number of patients (%)
  Pancreatitis (causally related), any grade: 1 (3.3) Number of patients (%)
  Pancreatitis (causally related), grade ≥3: 1 (3.3) Number of patients (%)
  Renal and urinary disorders (causally related), any grade: 1 (3.3) Number of patients (%)
  Renal and urinary disorders (causally related), grade ≥3: 1 (3.3) Number of patients (%)
  Respiratory, thoracic and mediastinal disorders (causally related), any grade: 1 (3.3) Number of patients (%)
  Respiratory, thoracic and mediastinal disorders (causally related), grade ≥3: 0 Number of patients (%)
  Stomatitis (causally related), any grade: 1 (3.3) Number of patients (%)
  Stomatitis (causally related), grade ≥3: 0 Number of patients (%)
  Thrombocytopenia (causally related), any grade: 2 (6.7) Number of patients (%)
  Thrombocytopenia (causally related), grade ≥3: 0 Number of patients (%)
  Vascular disorders (causally related), any grade: 1 (3.3) Number of patients (%)
  Vascular disorders (causally related), grade ≥3: 0 Number of patients (%)
  Vomiting (causally related), any grade: 7 (23.3) Number of patients (%)
  Vomiting (causally related), grade ≥3: 1 (3.3) Number of patients (%)
  Weight decreased (causally related), any grade: 3 (10.0) Number of patients (%)
  Weight decreased (causally related), grade ≥3: 0 Number of patients (%)
[2]; adavosertib alone n = 30
  patients with treatment-related vomiting: 20.0%
[2]; adavosertib alone on days 1 and 2, two SAEs: acute kidney injury and pancreatitis, led to discontinuation
  patients reporting serious AEs (SAEs) considered related to adavosertib: One
[2]; [4]
  patients with treatment-related adverse events: 63%
  patients with treatment-related adverse events grade ≥ 3: 20%
[2]; any cause
  patients with CTCAE grade ≥ 3 acute kidney injury: 3.3%
  patients with CTCAE grade ≥ 3 dehydration: 3.3%
  patients with CTCAE grade ≥ 3 diarrhea: 10.0%
  patients with CTCAE grade ≥ 3 hypokalemia: 3.3%
  patients with CTCAE grade ≥ 3 hypoxia: 3.3%
  patients with CTCAE grade ≥ 3 nausea: 3.3%
  patients with CTCAE grade ≥ 3 necrotizing soft-tissue infection: 3.3%
  patients with CTCAE grade ≥ 3 neutropenia: 3.3%
  patients with CTCAE grade ≥ 3 pancreatitis: 3.3%
  patients with CTCAE grade ≥ 3 small-intestinal obstruction: 3.3%
  patients with CTCAE grade ≥ 3 thrombocytopenia: 3.3%
  patients with CTCAE grade ≥ 3 vomiting: 3.3%
[2]; cocktail alone 33 patients, probe cocktail plus adavosertib 26, adavosertib alone on days 1 and 2, 30
  patients who experienced AEs: 53.3%
[2]; grade 3 diarrhea (related to adavosertib), grade 3 small-bowel obstruction (not related)
  patients who discontinued treatment because of AEs: Two
[2]; [5]
  patients with adverse events of CTCAE grade ≥ 3: 16.7%
  patients with treatment-related AEs: 36.7%
[2]; [6]
  patients with treatment-related diarrhea: 33.3%
  patients with treatment-related nausea: 10.0%
